Active and inactive are the calls of the source. The calls are words filed in the database; no cut-off is given here.
Assays:
[1] = target: Integrin alpha-4/beta-1 (Homo sapiens) (UniProt P05556+P13612); experiment: Inhibition of integrin alpha-4-beta-1-mediated U937 and Jurkat cell adhesion to VCAM-1 coated surface up to 100 uM by BCECF fluorescence measurement; format: cell-based
[2] = target: T1, Substance-K receptor (Homo sapiens) (UniProt P21452); experiment: Displacement of [125I]neurokinin A from human tachykinin NK2 receptor expressed in CHO cell at 10 uM; format: cell-based
T1 sequence (whole entry): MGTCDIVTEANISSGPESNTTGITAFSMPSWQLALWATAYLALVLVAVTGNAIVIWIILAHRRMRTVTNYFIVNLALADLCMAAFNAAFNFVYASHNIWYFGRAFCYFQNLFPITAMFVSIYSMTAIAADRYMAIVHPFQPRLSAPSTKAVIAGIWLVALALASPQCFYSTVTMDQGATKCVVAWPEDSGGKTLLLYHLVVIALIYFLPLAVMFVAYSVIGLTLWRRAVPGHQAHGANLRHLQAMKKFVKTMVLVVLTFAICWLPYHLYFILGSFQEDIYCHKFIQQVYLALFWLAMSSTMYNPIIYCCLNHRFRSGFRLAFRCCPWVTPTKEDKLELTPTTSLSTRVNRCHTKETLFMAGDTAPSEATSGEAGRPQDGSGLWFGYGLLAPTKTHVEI

| Structure (SMILES) | inhibition [1] | inhibition [2] [%] |
| --- | --- | --- |
| CC[C@H](C)[C@@H]1NC(=O)[C@H](CCC(=O)O)NC(=O)[C@H]2O[C@@H]3OC(=C(C(=O)OC)S[C@@H]3[C@@H](O)[C@@H]2O)C[C@@H](C(=O)O)NC(=O)[C@H](C(C)C)NC(=O)[C@H](CC(=O)O)NC(=O)[C@H](CC(C)C)NC1=O | inactive | – |
| COC(=O)C1=C2C[C@@H](C(=O)OCc3ccccc3)NC(=O)[C@H](C)NC(=O)[C@H](Cc3ccccc3)NC(=O)[C@H](Cc3ccccc3)NC(=O)[C@H](Cc3ccccc3)NC(=O)[C@H](C)NC(=O)[C@H]3O[C@H](O2)[C@H](S1)[C@@H](O)[C@@H]3O | – | 25 |
